Laboratory results: patent publication US20250361297A1, “ANTI- SIGLEC-15 BINDING MOLECULES AND METHODS OF USE” (ADAPTAM THERAPEUTICS, S.L., priority 2024, published 2025)
Where a SMILES comes first, the peptide text is derived from it. [ ]: non-standard residue; d: D form. The star is where a group is joined. Dolaproine = CO[C@@H]([C@@H]1CCCN1)[C@@H](C)C(=O)O; Dil = CC[C@H](C)[C@H](NC)[C@@H](CC(=O)O)OC; X1 = C[C@@H](N*)[C@@H](O)c1ccccc1; NMeV = CN[C@H](C(=O)O)C(C)C

Columns and labels:
[1] = test system: human macrophages; assay: Viability of payload-treated human macrophages (Calcein AM / Ethidium Homodimer-1); assay type: cell-based; conditions: free payload; 48-hour incubation; calcein-positive, Ethidium Homodimer-1 negative cells
Experimental: Macrophage differentiation from CD14+ monocytes: Human peripheral blood mononuclear cells (PBMCs) were isolated from blood donors, who provided informed consent, using density gradient centrifugation. Monocytes were then purified from PBMCs utilizing a CD14 selection kit (Stemcell) according to the manufacturer's instructions. The isolated monocytes were differentiated into macrophages by culturing in RPMI 1640 medium supplemented with 10% FBS and 100 ng/mL macrophage colony-stimulating factor (M-CSF) for 5 days.
Viability assay with Calcein AM: To prepare the viability assay with Calcein AM for flow cytometry, 5 μL of Calcein AM (Component A) and 20 μL of Ethidium Homodimer-1 (Component B) was added to 10 mL of DPBS. Cells were centrifuged at 450×G for 5 minutes to remove the culture medium, and 100-200 μL of the staining solution was added directly to the cells and incubated for 30 minutes at room temperature (20-25° C.). After the incubation, cells were centrifuged at 450×G for 5 minutes to remove the supernatant, and resuspended in 150 μL of DPBS. Cells were analyzed by flow cytometry.

[2] = test system: osteoclast differentiation; assay: Osteoclast differentiation in vitro (TRACP 5b in culture medium); assay type: cell-based; conditions: relative to baseline levels; culture medium at day 7 (FIG. 46)

With `CC[C@H](C)[C@@H]([C@@H](CC(=O)N1CCC[C@H]1[C@H](OC)[C@@H](C)C(=O)N[C@H](C)[C@@H](O)c1ccccc1)OC)N(C)C(=O)[C@@H](NC(=O)[C@@H](NC)C(C)C)C(C)C` [MMAE, monomethylauristatin E] (H-[NMeV]V[Dil][Dolaproine]-X1) the “loss of cell viability of human macrophages” value [1] was “at a lower concentration than Exatecan”.

In the case of “denosumab: control that reduced osteoclast differentiation [reference compound]”, the “effect on osteoclast differentiation (TRACP 5b)” value [2] is reported as “reduced differentiation”.
